Assay results as given in article PMC11413854, “Reversible Control of Native GluN2B-Containing NMDA Receptors with Visible Light” (ACS Chemical Neuroscience, 2024).
“And” between values parts separate entries of the source, which are not always exact repeats. Equal entries are not always repeated. Where two headings read alike, the source gives them in different places.

Assays:
GluN1/GluN2D = target: T1, GluN1/GluN2D (Rattus norvegicus, UniProt P35439+Q62645); experiment: TEVC on Xenopus oocytes, GluN1/GluN2D diheteromers; type: cell-based; settings: 1 µM trans-OptoNAM-3 (dark); listed as trans-OptoNAM-3
T1 construct: expressed in transfected cells; host or cells: Xenopus laevis oocytes (nuclear cDNA injection)
Description: NMDARs exist as multiple subtypes in the brain that are formed by the combination of two GluN1 and either two identical (diheteromers) or different (triheteromers) GluN2 (GluN2A-D) subunits.[1] We assessed the selectivity of trans-OptoNAM-3 (dark PSS) for the other NMDAR subtypes.
(§1) We used cDNA coding for rat GluN1–1a (named GluN1 herein) (GenBank: U08261.1), rat GluN2A (GenBank: D13211.1), mouse GluN2B (GenBank: D10651.2), rat GluA1 flop (GenBank: M36418.2), and rat Myc-GluA2(Q)-flip (GenBank: AF164344.1) cloned into pcDNA3-based expression plasmids. GluK2 (GenBank: Z11548.1) corresponds to the fully RNA-edited version.[80] The GluN2B-ΔNTD construct is from ref[45] and GluN2B–N615K is from ref[81]. Single mutants GluN2B-Q110G and GluN1-L135H were from ref[19]. The GluA2 cDNA contains a Myc tag ([…]) fused between the signal peptide and the N-terminus sequences, and the GluA2 subunit is […] for its Q/R/N site (GluA2(Q)) to allow permeation of homomeric GluA2 receptors.[2] cDNAs coding for rat GluN2C (GenBank: M91563.1) and GluN2D subunits (GenBank: L31611.1) were in prK5 plasmids.
Expression of recombinant NMDA receptors was obtained by oocyte nuclear coinjection of 37 nL of a mixture of cDNAs (at 30 ng/μL) coding for GluN1–1a and various GluN2 subunits (ratio 1:1). The protocol in ref[43] was followed for the expression of GluN1/GluN2A/GluN2B triheteromers. […]

GluA2 AMPA receptors = target: T2, GluA2 AMPA receptors (Rattus norvegicus, UniProt P19491); experiment: TEVC on Xenopus oocytes, GluA2 AMPA receptors; type: cell-based; set-up: Inhibition, individual values: scale not given here; settings: for Inhibition, individual values: GluA2, single cells
T2 construct: expressed in transfected cells; host or cells: Xenopus laevis oocytes (mRNA injection)
Description: as §1
The expression of recombinant GluA1, GluA2(Q), and GluK2 receptors was obtained by oocyte injection of 50 nL of mRNAs (at 1 μg/μL). mRNAs were generated using the T7 (GluA1 and GluA2) and T3 (GluK2) mMessage mMachine transcription kits (Invitrogen) after cDNA linearization with the SacII restriction enzyme. The injected oocytes were stored in the same conditions as for NMDARs and used 72–96 h postinjection.
TEVC recordings were performed 1–3 days following injection. TEVC recordings were performed using an Oocyte Clamp amplifier OC-725 (Warner Instruments) and computer-controlled via a 1440A Digidata (Molecular Devices). Currents were sampled at 100 Hz and low-pass-filtered at 20 Hz using an 8-pole Bessel filter (900 Series, Frequency Devices Inc.). Data were collected with Clampfit 10.3. During the recording, the cells were continuously perfused with external recording Ringer solution at pH 7.3 (in mM: 100 NaCl, 0.3 BaCl2, 5 HEPES, and 2.5 KCl, pH adjustment to 7.3 by the addition of NaOH). The NMDA currents were induced by simultaneous application of L-glutamate and glycine (agonist solution) at saturating concentration (100 μM each), and DTPA (10 μM) to prevent receptor inhibition by ambient zinc (∼20 nM).[83] A control solution (100 μM glycine and 10 μM DTPA in Ringer pH 7.3) was used for washout of drug and test solutions. AMPA and kainate receptor currents were induced in the same conditions as NMDA currents (100 μM glutamate and glycine + 10 μM DTPA). Oocytes expressing GluK2 kainate receptors were treated with concanavalin A ([…], equivalent to 1.1 mg/mL) during 10 min before recording to decrease receptor desensitization. Unless notified, recordings were performed at a holding potential of −60 mV. All experiments were performed at room temperature. […]

T2 sequence (P19491 22-883 isoform P19491-2 limits assumed): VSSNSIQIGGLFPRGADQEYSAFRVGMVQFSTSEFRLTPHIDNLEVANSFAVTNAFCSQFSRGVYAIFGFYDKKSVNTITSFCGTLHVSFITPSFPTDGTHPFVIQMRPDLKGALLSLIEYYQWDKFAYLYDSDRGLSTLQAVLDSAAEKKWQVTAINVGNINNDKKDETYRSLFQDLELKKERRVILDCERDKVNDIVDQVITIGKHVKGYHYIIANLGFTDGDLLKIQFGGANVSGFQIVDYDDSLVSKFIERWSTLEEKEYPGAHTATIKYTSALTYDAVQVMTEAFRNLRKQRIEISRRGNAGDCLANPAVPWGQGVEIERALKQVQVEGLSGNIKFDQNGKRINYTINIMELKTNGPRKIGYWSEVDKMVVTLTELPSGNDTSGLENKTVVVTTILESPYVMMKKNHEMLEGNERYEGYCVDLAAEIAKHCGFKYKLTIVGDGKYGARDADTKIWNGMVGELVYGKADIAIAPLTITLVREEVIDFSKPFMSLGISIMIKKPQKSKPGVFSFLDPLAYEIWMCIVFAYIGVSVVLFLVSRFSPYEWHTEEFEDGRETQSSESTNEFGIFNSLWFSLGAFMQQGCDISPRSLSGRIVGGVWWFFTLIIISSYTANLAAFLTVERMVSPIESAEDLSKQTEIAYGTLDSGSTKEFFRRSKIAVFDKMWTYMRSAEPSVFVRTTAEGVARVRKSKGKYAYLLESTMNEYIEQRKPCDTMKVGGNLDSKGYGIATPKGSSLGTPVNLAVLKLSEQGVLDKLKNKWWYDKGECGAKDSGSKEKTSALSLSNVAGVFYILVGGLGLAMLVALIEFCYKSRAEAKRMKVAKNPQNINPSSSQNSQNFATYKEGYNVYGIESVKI
T1 sequence (Q62645 28-1323, other chains not shown): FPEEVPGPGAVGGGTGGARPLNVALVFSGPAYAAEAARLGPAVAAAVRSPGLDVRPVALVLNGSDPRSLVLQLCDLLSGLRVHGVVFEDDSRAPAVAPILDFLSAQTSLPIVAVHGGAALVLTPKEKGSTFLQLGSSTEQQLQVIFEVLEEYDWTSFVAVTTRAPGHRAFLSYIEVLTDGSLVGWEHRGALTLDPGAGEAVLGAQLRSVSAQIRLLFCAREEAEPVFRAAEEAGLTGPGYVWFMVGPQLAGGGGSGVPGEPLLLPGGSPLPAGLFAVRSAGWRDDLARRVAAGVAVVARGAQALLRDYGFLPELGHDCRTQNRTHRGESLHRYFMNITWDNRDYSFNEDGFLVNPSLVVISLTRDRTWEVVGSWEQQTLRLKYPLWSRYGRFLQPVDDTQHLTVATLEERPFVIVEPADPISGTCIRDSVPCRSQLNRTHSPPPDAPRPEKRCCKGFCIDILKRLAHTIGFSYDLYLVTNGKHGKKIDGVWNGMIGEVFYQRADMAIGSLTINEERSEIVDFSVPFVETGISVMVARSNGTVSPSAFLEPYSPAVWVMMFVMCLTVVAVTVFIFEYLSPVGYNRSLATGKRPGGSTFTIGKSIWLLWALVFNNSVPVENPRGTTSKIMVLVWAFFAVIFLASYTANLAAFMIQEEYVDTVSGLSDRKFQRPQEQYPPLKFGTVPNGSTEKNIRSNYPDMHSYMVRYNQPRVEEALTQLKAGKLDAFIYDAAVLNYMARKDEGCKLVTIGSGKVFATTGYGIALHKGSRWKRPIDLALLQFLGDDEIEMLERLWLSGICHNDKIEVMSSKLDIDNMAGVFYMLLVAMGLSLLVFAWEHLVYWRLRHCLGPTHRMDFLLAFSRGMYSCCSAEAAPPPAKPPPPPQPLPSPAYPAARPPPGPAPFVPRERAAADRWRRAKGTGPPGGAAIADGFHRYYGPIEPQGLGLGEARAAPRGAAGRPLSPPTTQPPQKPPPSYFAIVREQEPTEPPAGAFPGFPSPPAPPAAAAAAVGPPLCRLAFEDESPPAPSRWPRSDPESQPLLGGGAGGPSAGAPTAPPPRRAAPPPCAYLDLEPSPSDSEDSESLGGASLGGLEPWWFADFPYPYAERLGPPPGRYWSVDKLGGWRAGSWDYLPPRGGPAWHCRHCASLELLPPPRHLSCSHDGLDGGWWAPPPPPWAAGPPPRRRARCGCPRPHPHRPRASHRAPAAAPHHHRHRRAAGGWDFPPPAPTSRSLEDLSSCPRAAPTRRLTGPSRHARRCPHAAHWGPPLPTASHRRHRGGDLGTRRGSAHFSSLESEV

c1ccc(/N=N/c2ccc(CCNc3ccncc3)cc2)cc1 [OptoNAM-3, (E)-N-(4-(Phenyldiazenyl)phenethyl)pyridin-4-amine]
inhibition of GluN1/GluN2D (GluN1/GluN2D): 2.2% ± 0.2%
inhibition at 10 µM (GluA2 AMPA receptors; 10 µM OptoNAM-3 365 nm PSS, construct GluA2, read-out: Inhibition (%)): -4.9%
Inhibition, individual values (GluA2 AMPA receptors; 10 µM OptoNAM-3 dark PSS (trans) as headed, second block): -0.00171 and -0.04016 and -0.1082 and -0.02166 and -0.07608 and -0.04674
Inhibition, individual values (GluA2 AMPA receptors; 10 µM OptoNAM-3 dark PSS (trans), first block): -0.007761 and -0.14 and -0.08034 and -0.01769 and -0.2089 and 0.009857
inhibition at 10 µM (GluA2 AMPA receptors; 10 µM OptoNAM-3 dark PSS (trans), construct GluA2, read-out: Inhibition (%)): -7.4%
inhibition of GluA2 currents (GluA2 AMPA receptors; 10 µM, dark PSS): no effect
inhibition at 10 µM (GluA2 AMPA receptors; 10 µM, dark PSS, read-out: inhibition of GluA2 currents): -7.4 ± 3.5%
